Results: patent US20240277693A1, “A PHARMACEUTICAL PRODUCT CONTAINING TASQUINIMOD AND A METHOD FOR ASSESSING THE PURITY OF SAID PRODUCT” (ACTIVE BIOTECH AB, priority 2021, published 2024)
Each block holds one compound with its values, some of them ahead of it.

Key:
[1] = Drug product stability studies (general observations); format: physicochemical
Description: In a drug product, compound I is formed with compound II from hydrolysis of tasquinimod. […] Compound II is further decarboxylated to form compound III.
Compound III is the decarboxylated species formed from the degradation of compound II.
The mechanism for formation of compound IV in a drug product is unknown.

[2] = Stability testing of capsules at 25° C./60% RH in water impermeable blister pack; format: physicochemical
Description: In some embodiments, the method disclosed herein comprises storing (keeping) a sample of the pharmaceutical product for a period of time, preferably under selected conditions of temperature and humidity. The amount (or concentration) of tasquinimod and of at least one of compounds I, II, III and IV in the sample may preferably be determined at the beginning or before the storage period and at the end of the storage period. The selected storage conditions may include a temperature in the range of, for example, 20° C. to 40° C., and a relative humidity in the surrounding atmosphere in the range of, for example, 30% to 75%; e.g. 25° C. and 60% RH, or 30° C. and 65% RH, or 35° C. and 70% RH, or 40° C. and 75% RH. The storage period may extend over a time period in the range of, for example, several weeks to several years. For example, the stability testing period (“storage period”) may be 2 weeks, 3 weeks, 1 month, 2 months, 3 months, 4 months, 5 months, 6 months, 9 months, 1 year, 18 months, 2 years, 3 years, 4 years or even 5 years or longer. A shorter storage period may be selected by use of higher storage temperature and/or higher relative humidity (RH). The total amount of a tasquinimod decomposition product in the sample at the end of the storage period may be determined by, for example, HPLC.
The batch of capsules manufactured in Example 19 was assessed by determining the amount of tasquinimod and the amount of each one of compounds I, II, III and IV in a sample of the capsules at the end of a 3-month stability testing, whereby the criterion for approving the batch was that the capsules of the sample, at the end of the 3-month stability testing, contain a total amount of compounds I-IV of not more than 5.0% w/w, relative to the amount of tasquinimod in the capsules. The stability testing consisted of keeping the capsules, in a water impermeable blister pack, at 25° C./60% RH. At the end of the stability testing, the capsules contained 0.06% w/w of compound I, less than 0.05% w/w of compound II, 0.10% of compound III and less than 0.05% w/w of compound IV, relative to the amount of tasquinimod (determined to be 0.246 mg/capsule), viz. in total less than 0.26% w/w of compounds I-IV relative to the amount of tasquinimod. Therefore, according to the selected criterion for approval, the batch of capsules was determined to be suitable for distribution.
The obtained batch of capsules was subjected to multiple assessments, viz. a first assessment comprising determining the amount of tasquinimod and the amount of compounds I, II, III and IV in a sample of the capsules directly after manufacturing, whereby the selected criterion for approving the batch for distribution was that the capsules of the sample, in a water impermeable blister pack, contain not more than in total 5% w/w of compounds I-IV relative to the amount of tasquinimod, followed by eight further, independent assessments, by determining the amount of tasquinimod and the amount of each one of compounds I, II, III and IV in a sample of the capsules at the end of a period of stability testing (by keeping the capsules, in a water impermeable blister pack, at 25° C./60% RH) of 3, 6, 9, 12, 18, 24, 36 and 48 months, respectively, whereby each time the criterion for approving the batch was that the capsules of the sample, at the end of each period of stability testing, contain a total amount of compounds I-IV of not more than 5.0% w/w, relative to the amount of tasquinimod in the capsules.

[3] = 0.25 mg capsules of Example 19, 3 months
[4] = 0.25 mg capsules of Example 19, 6 months
[5] = 0.25 mg capsules of Example 19, 9 months
[6] = 0.25 mg capsules of Example 19, 12 months
[7] = 0.25 mg capsules of Example 19, 18 months
[8] = 0.25 mg capsules of Example 19, 24 months
[9] = 0.25 mg capsules of Example 19, 36 months
[10] = 0.25 mg capsules of Example 19, 48 months
[11] = 0.5 mg capsules of Example 28, 3 months
[12] = 0.5 mg capsules of Example 28, 6 months
[13] = 0.5 mg capsules of Example 28, 9 months
[14] = 0.5 mg capsules of Example 28, 12 months
[15] = 0.5 mg capsules of Example 28, 18 months
[16] = 0.5 mg capsules of Example 28, 24 months
[17] = 0.5 mg capsules of Example 28, 36 months
[18] = 0.5 mg capsules of Example 28, 48 months
[19] = 1.0 mg capsules of Example 29, 3 months
[20] = 1.0 mg capsules of Example 29, 6 months
[21] = 1.0 mg capsules of Example 29, 9 months
[22] = 1.0 mg capsules of Example 29, 12 months
[23] = 1.0 mg capsules of Example 29, 18 months
[24] = 1.0 mg capsules of Example 29, 24 months
[25] = 1.0 mg capsules of Example 29, 36 months
[26] = 1.0 mg capsules of Example 29, 48 months

change of the amount of the compound in tasquinimod drug product on storage [1]: increase under any conditions
amount of decomposition product (each of compounds I-IV) in capsules, relative to the amount of tasquinimod [2, 3]: 0.10 % w/w
amount of decomposition product (each of compounds I-IV) in capsules, relative to the amount of tasquinimod [2, 4]: 0.16 % w/w
amount of decomposition product (each of compounds I-IV) in capsules, relative to the amount of tasquinimod [2, 5]: 0.21 % w/w
amount of decomposition product (each of compounds I-IV) in capsules, relative to the amount of tasquinimod [2, 6]: 0.26 % w/w
amount of decomposition product (each of compounds I-IV) in capsules, relative to the amount of tasquinimod [2, 7]: 0.35 % w/w
amount of decomposition product (each of compounds I-IV) in capsules, relative to the amount of tasquinimod [2, 8]: 0.41 % w/w
amount of decomposition product (each of compounds I-IV) in capsules, relative to the amount of tasquinimod [2, 9]: 0.57 % w/w
amount of decomposition product (each of compounds I-IV) in capsules, relative to the amount of tasquinimod [2, 10]: 0.79 % w/w
Decomposition products (% w/w), relative to the amount of tasquinimod in capsule [2, 11]: 0.05 % w/w
Decomposition products (% w/w), relative to the amount of tasquinimod in capsule [2, 12]: 0.09 % w/w
Decomposition products (% w/w), relative to the amount of tasquinimod in capsule [2, 13]: 0.11 % w/w
Decomposition products (% w/w), relative to the amount of tasquinimod in capsule [2, 14]: 0.13 % w/w
Decomposition products (% w/w), relative to the amount of tasquinimod in capsule [2, 15]: 0.16 % w/w
Decomposition products (% w/w), relative to the amount of tasquinimod in capsule [2, 16]: 0.19 % w/w
Decomposition products (% w/w), relative to the amount of tasquinimod in capsule [2, 17]: 0.27 % w/w
Decomposition products (% w/w), relative to the amount of tasquinimod in capsule [2, 18]: 0.36 % w/w
Decomposition products (% w/w), relative to the amount of tasquinimod in capsule [2, 19]: <0.05 % w/w
Decomposition products (% w/w), relative to the amount of tasquinimod in capsule [2, 20]: <0.05 % w/w
Decomposition products (% w/w), relative to the amount of tasquinimod in capsule [2, 21]: <0.05 % w/w
Decomposition products (% w/w), relative to the amount of tasquinimod in capsule [2, 22]: 0.06 % w/w
Decomposition products (% w/w), relative to the amount of tasquinimod in capsule [2, 23]: 0.09 % w/w
Decomposition products (% w/w), relative to the amount of tasquinimod in capsule [2, 24]: 0.10 % w/w
Decomposition products (% w/w), relative to the amount of tasquinimod in capsule [2, 25]: 0.15 % w/w
Decomposition products (% w/w), relative to the amount of tasquinimod in capsule [2, 26]: 0.18 % w/w
SMILES: COc1cccc2c1c(O)cc(=O)n2C [Compound III, 4-hydroxy-5-methoxy-1-methylquinolin-2(1H)-one]

amount of tasquinimod in capsules [2, 3]: 0.246 mg/capsule
amount of tasquinimod in capsules [2, 4]: 0.243 mg/capsule
amount of tasquinimod in capsules [2, 5]: 0.243 mg/capsule
amount of tasquinimod in capsules [2, 6]: 0.245 mg/capsule
amount of tasquinimod in capsules [2, 7]: 0.245 mg/capsule
amount of tasquinimod in capsules [2, 8]: 0.237 mg/capsule
amount of tasquinimod in capsules [2, 9]: 0.237 mg/capsule
amount of tasquinimod in capsules [2, 10]: 0.238 mg/capsule
Tasquinimod (mg/capsule) [2, 11]: 0.501 mg/capsule
Tasquinimod (mg/capsule) [2, 12]: 0.497 mg/capsule
Tasquinimod (mg/capsule) [2, 13]: 0.504 mg/capsule
Tasquinimod (mg/capsule) [2, 14]: 0.500 mg/capsule
Tasquinimod (mg/capsule) [2, 15]: 0.501 mg/capsule
Tasquinimod (mg/capsule) [2, 16]: 0.486 mg/capsule
Tasquinimod (mg/capsule) [2, 17]: 0.490 mg/capsule
Tasquinimod (mg/capsule) [2, 18]: 0.494 mg/capsule
Tasquinimod (mg/capsule) [2, 19]: 0.989 mg/capsule
Tasquinimod (mg/capsule) [2, 20]: 0.988 mg/capsule
Tasquinimod (mg/capsule) [2, 21]: 1.007 mg/capsule
Tasquinimod (mg/capsule) [2, 22]: 0.992 mg/capsule
Tasquinimod (mg/capsule) [2, 23]: 0.982 mg/capsule
Tasquinimod (mg/capsule) [2, 24]: 0.997 mg/capsule
Tasquinimod (mg/capsule) [2, 25]: 1.000 mg/capsule
Tasquinimod (mg/capsule) [2, 26]: 0.987 mg/capsule
SMILES: COc1cccc2c1c(O)c(C(=O)N(C)c1ccc(C(F)(F)F)cc1)c(=O)n2C [Tasquinimod, 4-hydroxy-5-methoxy-N, 1-dimethyl-2-oxo-N-[4-(trifluoromethyl)phenyl]-1,2-dihydroquinoline-3-carboxamide]
